Results taken from US12448388B2, “PRMT5 inhibitors and uses thereof” (Gilead Sciences, Inc., priority 2023, dated 2025).
Like-named read-outs stand apart in the source and are kept apart here.

Legend:
[1] = test system: Symmetric Di-methyl Arginine (SDMA) signal (PRMT5 inhibition) in HCT116 MTAP-deleted cells; assay: Symmetric di-methyl arginine image-based high content screen assay (SDMA assay), HCT116 MTAP-deleted; assay type: cell-based; conditions: for EC50: Homo sapiens, HCT-116, HCT116 MTAP-deleted, class symbols
Outline: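 HCT116 WT and MTAP-deleted cells (800/well, RPMI 1640 + 10% FBS) treated with compound 3 days at 37 °C; formalin-fixed, stained with anti-SDMA antibody/Alexa 488 plus DAPI. Mean SDMA intensity per DAPI-defined cell imaged; EC50 from 4-parameter logistic fit.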

[2] = PK data (IV/PO) in cynomolgus monkey; conditions: in vivo; for clearance: read-out: Observed CL (converted); for Vd: read-out: Vss; for bioavailability: PO 0.5 mg/Kg
[3] = test system: Calu-6 (lung, adenocarcinoma; MTAP-WT); assay: In vitro cell viability assay (CellTiter-Glo, 9 days), Calu-6; assay type: cell-based; conditions: Homo sapiens, Calu-6, 216 h, 9-day treatment
Experimental: Some Compounds of the Disclosure were tested in Calu-6 (Vendor: ATCC; Cat #HTB-56; Description: lung, adenocarcinoma), LU99 (Vendor: JCRB; Cat #JCRB0080; Description: lung, giant cell carcinoma), SW780 (Vendor: ATCC; Cat #CRL-2169; Description: bladder, urothelial carcinoma), and BxPC-3 (Vendor: ATCC; Cat #CRL-1687; Description: pancreas, adenocarcinoma) cellular viability assays according to the general protocol. Seeded cells into 96-well plate and incubated overnight. Seeded an additional 10 wells per cell line in an additional 96-well plate for assessing Time Zero luminescence and incubated overnight. To treatment plates, added compounds into each well using Tecan D300e dispenser (nine three-fold dilutions starting at […]) and incubated for 9 days. Time Zero (no compound treatment, luminescence assessed on day 1) and 9-day treatment (luminescence assessed on day 10) plates were assessed using the same CellTiter-Glo® substrate protocol. Thawed CellTiter-Glo® Buffer and lyophilized CellTiter-Glo® substrate and equilibrated to room temperature prior to use. Transferred 100 ml CellTiter-Glo® Buffer into amber bottle containing CellTiter-Glo® substrate to reconstitute the lyophilized enzyme/substrate mixture. For Time Zero and 9-day treatment plates, removed all plating media. Added 100 μl fresh media/well. Added 100 μl CellTiter-Glo® Reagent per well. Mixed contents for 10 min on an orbital shaker to lyse cells. Recorded luminescence with Perkin Elmer Envision 2105 machine. Analyzed the data with GraphPad software.

[4] = Pharmacokinetics in cassette in male cynomolgus monkeys for Kp measurement; assay type: in vivo; conditions: cynomolgus monkey, 0.5 mg/kg, intravenous
Experimental: F.1 Test Animal: Cynomolgus Monkeys from Labcorp 8298417 Maintained at Labcorp-Madison
F.2 Pharmaceutical Formulation and Administration
Test compound was dissolved in the vehicle of 10% DMSO, 10% ethanol, 40% polyethylene glycol 300, and 40% propylene glycol to get 0.5 mg/mL test compound solution. The compound was administered by intravenous administration at a dose of 1 mL/kg. The intravenous dose was administered as a bolus injection followed by an approximately 2-hour infusion via an indwelling catheter in a saphenous or cephalic vein. Fasting was not required.
• Collection time: • PK for Plasma: Predose, 0.25, 1, 1.5 and 2 hours postdose (based on start of infusion) • PK for Whole Blood: 1.5 hour postdose • Anticogulant: K2EDTA • Volume: • PK for Plasma: Approximately 0.5 mL • PK for Whole Blood: Approximately 0.1 mL • Collection Site: Femoral vein; saphenous or cephalic vein

[5] = HCT116 WT vs HCT116 MTAP-deleted
[6] = brain Kp = [brain]/[plasma], cyno, read-out: Cyno brain Kp
[7] = brain Kpu,u = Kp * (plasma free/rat brain free), read-out: Cyno brain Kpu,u
[8] = HCT116 WT versus HCT116 MTAP-deleted

Compound | EC50 selectivity [1, 5] | EC50 [1] [nM] | GI50 [3] [nM] | Kp [4, 6] | Kp [4, 7] | EC50 selectivity [1, 8] | other results
Nc1nc2cnc(C(=O)N3CCC[C@@H]4Oc5cc(OC(F)(F)F)cc(F)c5[C@@H]43)cc2n2cncc12 (single isomer, unassigned) [Fg-55] | 114 | ≤ 1 | 2510 | 0.95 | 0.12 |  | half-life ([2]; IV 0.25 mg/Kg): 10.7 h; clearance ([2]; IV 0.25 mg/Kg): 2.17 mL/min/kg; Vd ([2]; IV 0.25 mg/Kg): 2 L/kg
Cc1ncc2c(N)nc3cnc(C(=O)N4CCC[C@@H]5Oc6cc(OC(F)(F)F)ccc6[C@@H]54)cc3n12 [Ff-340, (4-amino-1-methylimidazo[1,5-a]pyrido[3,4-e]pyrazin-8-yl)((4aS,9bS)-7-(trifluoromethoxy)-3,4,4a,9b-tetrahydrobenzofuro[3,2-b]pyridin-1(2H)-yl)methanone] |  | ≤ 1 | 2950 | 1.1 | 0.32 | 135 | half-life ([2]; IV 0.33 mg/Kg): 5.8 h; clearance ([2]; IV 0.33 mg/Kg): 4 mL/min/kg; Vd ([2]; IV 0.33 mg/Kg): 1.9 L/kg
Nc1nc2cnc(C(=O)N3CCC[C@@H]4Oc5cc(OC(F)(F)F)ccc5[C@@H]43)cc2n2cncc12 [Ff-341, (4-aminoimidazo[1,5-a]pyrido[3,4-e]pyrazin-8-yl)((4aS,9bS)-7-(trifluoromethoxy)-3,4,4a,9b-tetrahydrobenzofuro[3,2-b]pyridin-1(2H)-yl)methanone] |  | ≤ 1 | 2440 |  |  | 145 | half-life ([2]; IV 0.25 mg/Kg): 8 h; clearance ([2]; IV 0.25 mg/Kg): 3.33 mL/min/kg; Vd ([2]; IV 0.25 mg/Kg): 2.15 L/kg
C[C@H]1CN(C(=O)c2cc3c(cc2F)nc(N)c2cncn23)[C@H]2c3ccc(C(F)(F)F)cc3C[C@H]2O1 (single isomer, unassigned) [Ff-81] |  |  | > 10000 | 0.96 | 0.13 |  | half-life ([2]; IV 0.5 mg/Kg): 16 h; clearance ([2]; IV 0.5 mg/Kg): 3 mL/min/kg; Vd ([2]; IV 0.5 mg/Kg): 1.77 L/kg; bioavailability [2]: 123%
C[C@@H]1CN(C(=O)c2cc3c(cc2F)nc(N)c2cncn23)[C@H]2c3cc(F)c(OC(F)(F)F)cc3C[C@H]2O1 (single isomer, unassigned) [Ff-197] |  |  |  | 1.2 | 0.28 |  | 
[2H]C1([2H])CC[C@@H]2Oc3cc(C(F)(F)F)ccc3[C@@H]2N1C(=O)c1cc2c(cn1)nc(N)c1cncn12 [Fg-60, (4-aminoimidazo[1,5-a]pyrido[3,4-e]pyrazin-8-yl)((4aS,9bS)-7-(trifluoromethyl)-3,4,4a,9b-tetrahydrobenzofuro[3,2-b]pyridin-1(2H)-yl-2,2-d2)methanone] | 87 | ≤ 1 |  |  |  |  | 
Nc1nc2ccc(C(=O)N3CCC[C@@H]4Oc5cc(C(F)(F)F)ccc5[C@@H]43)cc2n2cncc12 [Ff-111, (4-aminoimidazo[1,5-a]quinoxalin-8-yl)((4aS,9bS)-7-(trifluoromethyl)-3,4,4a,9b-tetrahydrobenzofuro[3,2-b]pyridin-1(2H)-yl)methanone] |  | ≤ 1 | > 6400 | 1.1 | 0.23 | 258 | half-life ([2]; IV 0.33 mg/Kg): 5.9 h; clearance ([2]; IV 0.33 mg/Kg): 2.5 mL/min/kg; Vd ([2]; IV 0.33 mg/Kg): 1.29 L/kg
Nc1nc2cnc(C(=O)N3CCC[C@@H]4Oc5cc(C(F)(F)F)ccc5[C@@H]43)cc2n2cncc12 [Ff-110, (4-aminoimidazo[1,5-a]pyrido[3,4-e]pyrazin-8-yl)((4aS,9bS)-7-(trifluoromethyl)-3,4,4a,9b-tetrahydrobenzofuro[3,2-b]pyridin-1(2H)-yl)methanone] |  | ≤ 1 | 1550 | 0.76 | 0.1 | 118 | 
Nc1nc2cnc(C(=O)N3CC[C@H]4C[C@@H]3c3ccc(OC(F)(F)F)cc3O4)cc2n2cncc12 [Ff-685, (4-aminoimidazo[1,5-a]pyrido[3,4-e]pyrazin-8-yl)((2S,6R)-9-(trifluoromethoxy)-3,4-dihydro-2H-2,6-methanobenzo[b][1,5]oxazocin-5(6H)-yl)methanone] | 108 | 1 to 5 |  |  |  |  | 
Nc1nc2cnc(C(=O)N3CCC[C@@H]4Oc5cc(C(F)(F)F)cc(F)c5[C@@H]43)cc2n2cncc12 (single isomer, unassigned) [Fg-53] | 85 | ≤ 1 | 1260 | 0.99 | 0.16 |  | half-life ([2]; IV 0.25 mg/Kg): 15.4 h; clearance ([2]; IV 0.25 mg/Kg): 2 mL/min/kg; Vd ([2]; IV 0.25 mg/Kg): 2.53 L/kg; bioavailability [2]: 84%
Nc1nc2cnc(C(=O)N3CC[C@H]4C[C@@H]3c3ccc(C(F)(F)F)c(F)c3O4)cc2n2cncc12 [Ff-684, (4-aminoimidazo[1,5-a]pyrido[3,4-e]pyrazin-8-yl)((2S,6R)-10-fluoro-9-(trifluoromethyl)-3,4-dihydro-2H-2,6-methanobenzo[b][1,5]oxazocin-5(6H)-yl)methanone] | 121 | ≤ 1 |  |  |  |  | 
Nc1nc2cc(F)c(C(=O)N3CCC[C@@H]4Oc5cc(C(F)(F)F)ccc5[C@@H]43)cc2n2cncc12 [Ff-104, (4-amino-7-fluoroimidazo[1,5-a]quinoxalin-8-yl)((4aS,9bS)-7-(trifluoromethyl)-3,4,4a,9b-tetrahydrobenzofuro[3,2-b]pyridin-1(2H)-yl)methanone] |  |  | 2150 | 1.78 | 0.19 |  | half-life ([2]; IV 0.25 mg/Kg): 10.4 h; clearance ([2]; IV 0.25 mg/Kg): 1.67 mL/min/kg; Vd ([2]; IV 0.25 mg/Kg): 1.47 L/kg; half-life ([2]; IV 0.5 mg/Kg): 11 h; clearance ([2]; IV 0.5 mg/Kg): 3.17 mL/min/kg; Vd ([2]; IV 0.5 mg/Kg): 1.7 L/kg; bioavailability [2]: 108%
Cc1ncn2c1c(N)nc1cnc(C(=O)N3CCC[C@@H]4Oc5cc(C(F)(F)F)ccc5[C@@H]43)cc12 [Ff-499, (4-amino-3-methylimidazo[1,5-a]pyrido[3,4-e]pyrazin-8-yl)((4aS,9bS)-7-(trifluoromethyl)-3,4,4a,9b-tetrahydrobenzofuro[3,2-b]pyridin-1(2H)-yl)methanone] |  |  |  | 2.4 | 0.51 |  | half-life ([2]; IV 0.33 mg/Kg): 1.39 h; clearance ([2]; IV 0.33 mg/Kg): 24.5 mL/min/kg; Vd ([2]; IV 0.33 mg/Kg): 1.93 L/kg
Nc1nc2cnc(C(=O)N3CC4(CC4)C[C@@H]4Oc5cc(C(F)(F)F)ccc5[C@@H]43)cc2n2cncc12 [Ff-648, (4-aminoimidazo[1,5-a]pyrido[3,4-e]pyrazin-8-yl)((4aS,9bS)-7-(trifluoromethyl)-4a,9b-dihydro-2H-spiro[benzofuro[3,2-b]pyridine-3,1′-cyclopropan]-1(4H)-yl)methanone] | 50 | ≤ 1 | 1660 |  |  |  | 
C[C@@H]1CN(C(=O)c2cc3c(cc2F)nc(N)c2cncn23)[C@H]2c3ccc(OC(F)(F)F)cc3C[C@H]2O1 (single isomer, unassigned) [Ff-183] |  | ≤ 1 | 2150 |  |  | 117 | 
